Assay results as given in paper PMC10945555, “Improving Activity of New Arylurea Agents against Multidrug-Resistant and Biofilm-Producing Staphylococcus epidermidis” (ACS Medicinal Chemistry Letters, 2024).
Converted amounts (≈) assume the structure as drawn. Like-named read-outs stand apart in the source and are kept apart here.

What was measured:
[1] = test system: Staphylococcus aureus ATCC BAA-976; experiment: MIC, broth microdilution, MDR/BPSA reference strain; assay type: cell-based; details: ATCCBAA976; Staphylococcus aureus ATCC BAA-976; read-out: MIC MDR/BPSA
Text: These strains included susceptible, multidrug-resistant, and biofilm-producing strains of S. epidermidis and S. aureus (MSSE, MDR/BPSE, and MDR/BPSA, respectively). The cornerstone antibiotic linezolid served as a positive control (Table 1). The impact of structural modifications at the aryloxy fragment and the aromatic moiety bound to the propyl linker on the inhibitory activity was initially investigated. […] Further optimization focused on evaluating the impact of the type of substituent and its position on the arylsulfonamide fragment’s activity.
(§1) 2 Biological assay protocols
(§2) Microbiological tests were carried out under aseptic conditions in a laminar chamber of the 2nd […]
(§3) (BioTectum 1.2, Alchem Poland). The assessment of antimicrobial activity was carried out for final compounds in the form of free bases, soluble in DMSO (Merck, Germany), at the initial […]
(§4) concentration of 1 mg/mL. […]
were provided by Cayman Chemical, USA.
The activity of all newly synthesized compounds was tested in vitro on a panel of selected reference strains from the American Type Culture Collection (ATCC) of Gram-positive […]
(§5) 2.2 Effect of evaluated compounds on planktonic cells
(§6) The susceptibility of three reference bacterial strains (Staphylococcus epidermidis ATCC […]
(§7) Table S1) and 81 clinical MDR S. epidermidis (Table S2) to the tested compounds was assessed by determining the MIC value (Minimal Inhibitory Concentration) by microdilution in a liquid medium in 96-well flat-bottom cell culture plates (Nest Biotechnology Scientific, USA). The antibacterial properties of the compo unds were tested in the concentration range from 50 µg/mL to 0.1 µg/mL by making a series of double dilutions of the compound in liquid Mueller -Hinton II Broth Cation Adjusted (MHB II, BBL TM, USA) according to the European Committee on […]
(§8) Antimicrobial Susceptibility Testing guidelines (EUCAST).2,3 The determinations were performed twice. The MIC50 and MIC90 values were determined for each of the tested

[2] = test system: clinical MDR Staphylococcus epidermidis isolates; experiment: MIC, broth microdilution, 81 clinical MDR strains; assay type: cell-based; details: Staphylococcus epidermidis
Experimental: as §1, §2, §3, §4
were provided by Cayman Chemical, USA. […]
The antibacterial activity of selected compounds was also tested on a panel of 81 unrelated, multidrug -resistant clinical strains of Staphylococcus epidermidis from the own collection of the Department of Pharmaceutical Microbiology of the Jagiellonian University Medical College.
as §5, §6, §7, §8

O=S(=O)(NC1CCN(CCC(Oc2ccc(C(F)(F)F)cc2)c2cccs2)CC1)c1cccc(Cl)c1 (stereo not shown) [Compound 14]
MIC [1]: 12.5 mg/L (≈ 22.4 µM) | MIC ([2]; clinical strain 1 (Table S2), read-out: MIC): 0.1 mg/L (≈ 0.179 µM) | MIC ([2]; clinical strain 2 (Table S2), read-out: MIC): 0.4 mg/L (≈ 0.715 µM) | MIC ([2]; clinical strain 3 (Table S2), read-out: MIC): 0.8 mg/L (≈ 1.43 µM) | MIC ([2]; clinical strain 4 (Table S2), read-out: MIC): 1.6 mg/L (≈ 2.86 µM) | MIC ([2]; clinical strain 5 (Table S2), read-out: MIC): 3.12 mg/L (≈ 5.59 µM) | MIC ([2]; clinical strain 6 (Table S2), read-out: MIC): 0.8 mg/L (≈ 1.43 µM) | MIC ([2]; clinical strain 7 (Table S2), read-out: MIC): 3.12 mg/L (≈ 5.59 µM) | MIC ([2]; clinical strain 8 (Table S2), read-out: MIC): 1.6 mg/L (≈ 2.86 µM) | MIC ([2]; clinical strain 9 (Table S2), read-out: MIC): 1.6 mg/L (≈ 2.86 µM) | MIC ([2]; clinical strain 10 (Table S2), read-out: MIC): 3.12 mg/L (≈ 5.59 µM) | MIC ([2]; clinical strain 11 (Table S2), read-out: MIC): 3.12 mg/L (≈ 5.59 µM) | MIC ([2]; clinical strain 12 (Table S2), read-out: MIC): 6.25 mg/L (≈ 11.2 µM) | MIC ([2]; clinical strain 13 (Table S2), read-out: MIC): 6.25 mg/L (≈ 11.2 µM) | MIC ([2]; clinical strain 14 (Table S2), read-out: MIC): 6.25 mg/L (≈ 11.2 µM) | MIC ([2]; clinical strain 15 (Table S2), read-out: MIC): 1.6 mg/L (≈ 2.86 µM) | MIC ([2]; clinical strain 16 (Table S2), read-out: MIC): 1.6 mg/L (≈ 2.86 µM) | MIC ([2]; clinical strain 17 (Table S2), read-out: MIC): 3.12 mg/L (≈ 5.59 µM) | MIC ([2]; clinical strain 18 (Table S2), read-out: MIC): 3.12 mg/L (≈ 5.59 µM) | MIC ([2]; clinical strain 19 (Table S2), read-out: MIC): 3.12 mg/L (≈ 5.59 µM) | MIC ([2]; clinical strain 20 (Table S2), read-out: MIC): 1.6 mg/L (≈ 2.86 µM) | MIC ([2]; clinical strain 21 (Table S2), read-out: MIC): 3.12 mg/L (≈ 5.59 µM) | MIC ([2]; clinical strain 22 (Table S2), read-out: MIC): 6.25 mg/L (≈ 11.2 µM) | MIC ([2]; clinical strain 23 (Table S2), read-out: MIC): 12.5 mg/L (≈ 22.4 µM) | MIC ([2]; clinical strain 24 (Table S2), read-out: MIC): 6.25 mg/L (≈ 11.2 µM) | MIC ([2]; clinical strain 25 (Table S2), read-out: MIC): 6.25 mg/L (≈ 11.2 µM) | MIC ([2]; clinical strain 26 (Table S2), read-out: MIC): 6.25 mg/L (≈ 11.2 µM) | MIC ([2]; clinical strain 27 (Table S2), read-out: MIC): 3.12 mg/L (≈ 5.59 µM) | MIC ([2]; clinical strain 28 (Table S2), read-out: MIC): 12.5 mg/L (≈ 22.4 µM) | MIC ([2]; clinical strain 29 (Table S2), read-out: MIC): 12.5 mg/L (≈ 22.4 µM) | MIC ([2]; clinical strain 30 (Table S2), read-out: MIC): 12.5 mg/L (≈ 22.4 µM) | MIC ([2]; clinical strain 31 (Table S2), read-out: MIC): 12.5 mg/L (≈ 22.4 µM) | MIC ([2]; clinical strain 32 (Table S2), read-out: MIC): 6.25 mg/L (≈ 11.2 µM) | MIC ([2]; clinical strain 33 (Table S2), read-out: MIC): 3.12 mg/L (≈ 5.59 µM) | MIC ([2]; clinical strain 34 (Table S2), read-out: MIC): 12.5 mg/L (≈ 22.4 µM) | MIC ([2]; clinical strain 35 (Table S2), read-out: MIC): 12.5 mg/L (≈ 22.4 µM) | MIC ([2]; clinical strain 36 (Table S2), read-out: MIC): 50 mg/L (≈ 89.4 µM) | MIC ([2]; clinical strain 37 (Table S2), read-out: MIC): 12.5 mg/L (≈ 22.4 µM) | MIC ([2]; clinical strain 38 (Table S2), read-out: MIC): 12.5 mg/L (≈ 22.4 µM) | MIC ([2]; clinical strain 39 (Table S2), read-out: MIC): 12.5 mg/L (≈ 22.4 µM) | MIC ([2]; clinical strain 40 (Table S2), read-out: MIC): 25 mg/L (≈ 44.7 µM) | MIC ([2]; clinical strain 41 (Table S2), read-out: MIC): 25 mg/L (≈ 44.7 µM) | MIC ([2]; clinical strain 42 (Table S2), read-out: MIC): 12.5 mg/L (≈ 22.4 µM) | MIC ([2]; clinical strain 43 (Table S2), read-out: MIC): 25 mg/L (≈ 44.7 µM) | MIC ([2]; clinical strain 44 (Table S2), read-out: MIC): 50 mg/L (≈ 89.4 µM) | MIC ([2]; clinical strain 45 (Table S2), read-out: MIC): 25 mg/L (≈ 44.7 µM) | MIC ([2]; clinical strain 46 (Table S2), read-out: MIC): 50 mg/L (≈ 89.4 µM) | MIC ([2]; clinical strain 47 (Table S2), read-out: MIC): 25 mg/L (≈ 44.7 µM) | MIC ([2]; clinical strain 48 (Table S2), read-out: MIC): 3.12 mg/L (≈ 5.59 µM) | MIC ([2]; clinical strain 49 (Table S2), read-out: MIC): 0.1 mg/L (≈ 0.179 µM) | MIC ([2]; clinical strain 50 (Table S2), read-out: MIC): 50 mg/L (≈ 89.4 µM) | MIC ([2]; clinical strain 51 (Table S2), read-out: MIC): 50 mg/L (≈ 89.4 µM) | MIC ([2]; clinical strain 52 (Table S2), read-out: MIC): 3.12 mg/L (≈ 5.59 µM) | MIC ([2]; clinical strain 53 (Table S2), read-out: MIC): 12.5 mg/L (≈ 22.4 µM) | MIC ([2]; clinical strain 54 (Table S2), read-out: MIC): 12.5 mg/L (≈ 22.4 µM) | MIC ([2]; clinical strain 55 (Table S2), read-out: MIC): 50 mg/L (≈ 89.4 µM) | MIC ([2]; clinical strain 56 (Table S2), read-out: MIC): 3.12 mg/L (≈ 5.59 µM) | MIC ([2]; clinical strain 57 (Table S2), read-out: MIC): 12.5 mg/L (≈ 22.4 µM) | MIC ([2]; clinical strain 58 (Table S2), read-out: MIC): 6.25 mg/L (≈ 11.2 µM) | MIC ([2]; clinical strain 59 (Table S2), read-out: MIC): 50 mg/L (≈ 89.4 µM) | MIC ([2]; clinical strain 60 (Table S2), read-out: MIC): 3.12 mg/L (≈ 5.59 µM) | MIC ([2]; clinical strain 61 (Table S2), read-out: MIC): 50 mg/L (≈ 89.4 µM) | MIC ([2]; clinical strain 62 (Table S2), read-out: MIC): 6.25 mg/L (≈ 11.2 µM) | MIC ([2]; clinical strain 63 (Table S2), read-out: MIC): 0.4 mg/L (≈ 0.715 µM) | MIC ([2]; clinical strain 64 (Table S2), read-out: MIC): 6.25 mg/L (≈ 11.2 µM) | MIC ([2]; clinical strain 65 (Table S2), read-out: MIC): 6.25 mg/L (≈ 11.2 µM) | MIC ([2]; clinical strain 66 (Table S2), read-out: MIC): 50 mg/L (≈ 89.4 µM) | MIC ([2]; clinical strain 67 (Table S2), read-out: MIC): 50 mg/L (≈ 89.4 µM) | MIC ([2]; clinical strain 68 (Table S2), read-out: MIC): 50 mg/L (≈ 89.4 µM) | MIC ([2]; clinical strain 69 (Table S2), read-out: MIC): 3.12 mg/L (≈ 5.59 µM) | MIC ([2]; clinical strain 70 (Table S2), read-out: MIC): 50 mg/L (≈ 89.4 µM) | MIC ([2]; clinical strain 71 (Table S2), read-out: MIC): 50 mg/L (≈ 89.4 µM) | MIC ([2]; clinical strain 72 (Table S2), read-out: MIC): 3.12 mg/L (≈ 5.59 µM) | MIC ([2]; clinical strain 73 (Table S2), read-out: MIC): 0.8 mg/L (≈ 1.43 µM) | MIC ([2]; clinical strain 74 (Table S2), read-out: MIC): 50 mg/L (≈ 89.4 µM) | MIC ([2]; clinical strain 75 (Table S2), read-out: MIC): 6.25 mg/L (≈ 11.2 µM) | MIC ([2]; clinical strain 76 (Table S2), read-out: MIC): 3.12 mg/L (≈ 5.59 µM) | MIC ([2]; clinical strain 77 (Table S2), read-out: MIC): 6.25 mg/L (≈ 11.2 µM) | MIC ([2]; clinical strain 78 (Table S2), read-out: MIC): 6.25 mg/L (≈ 11.2 µM) | MIC ([2]; clinical strain 79 (Table S2), read-out: MIC): 6.25 mg/L (≈ 11.2 µM) | MIC ([2]; clinical strain 80 (Table S2), read-out: MIC): 12.5 mg/L (≈ 22.4 µM) | MIC ([2]; clinical strain 81 (Table S2), read-out: MIC): 6.25 mg/L (≈ 11.2 µM) | MIC ([2]; mean of MIC values against clinical MDR-SE isolates, read-out: mean MIC): 10 mg/L (≈ 17.9 µM) | MIC50 ([2]; 81 clinical strains, concentration inhibiting growth of 50% clinical isolates): 6.25 mg/L (≈ 11.2 µM) | MIC90 ([2]; 81 clinical strains, concentration inhibiting growth of 90% of clinical isolates): 50 mg/L (≈ 89.4 µM)
